Test results taken from patent publication US20150140123A1, “Protein expression analyses for identifying genotoxic compounds” (Merck Patent GmbH, priority 2012, published 2015).
Counter-ions that a name gives are not always drawn. Like-named read-outs stand apart in the source and are kept apart here.

Tested on: HepG2 cells
Experiment: High content imaging cytotoxicity parameters: selected cell count per valid field (SCC) and CMFDA cytoplasm average intensity
Procedure: HepG2 cells (Order No. HB-8065, Lot. 58483209, ATCC, Manassas, USA) were cultured in DMEM/F12 with L-Glutamine and 15 mM Hepes supplemented with 10% (v/v) FBS, 1% (v/v) penicillin (10 kU/ml)/streptomycin (10 mg/ml) solution, 0.1% (v/v) gentamicin (50 mg/ml), and 1 mM sodium pyruvate at 37° C. and 5% CO2 in culture flasks. Depending on the experiment, an appropriate number of cells were seeded onto plates after detaching of the cells using trypsin and cells were cultured at 37° C. and 5% CO2 for 24 h prior to treatment. All experiments were performed three times with cells of passages 4-20.
Cells were seeded onto black Poly-D-Lysin coated 96-well-plates (BD Biocoat, Franklin Lakes, USA) (0.02×10^6 cells/well) and left 24 h for adherence and then treated with test compounds at a maximum concentration of 1 mM which is recommended by the ICH S2(R1) guideline (EMA, 2011). For each compound, nine concentrations were tested with 2-fold serial dilutions. DMSO 1% (v/v) served as vehicle control for the experiments. The treatment procedure was different for direct-genotoxic and pro-genotoxic compounds. The treatment for direct genotoxic compounds was ongoing and was repeated daily over 48 h. Pro-genotoxic compounds were incubated for 6 h together with metabolic activation system (to limit the cytotoxic effect of the S9-mixture). After this period, cells were washed with cell media followed by 18-repeated daily over 48 h. The metabolic activation system used consisted of the following components and concentrations: 8 mM MgCl2, 32.8 mM KCl, 12 mM NADPH, 124 mM phosphate buffer and 2500 pmol/ml cytochrome P450 (CYP) content in the pre-mixture corresponding to 2.4 mM MgCl2, 9.8 mM KCl, 3.6 mM NADPH, 37.2 mM phosphate buffer, and 750 pmol/ml CYP as final concentrations after dilution 1:3.33 with cell culture media.
After treatment, cells were rinsed with PBS (Gibco Invitrogen, Karlsruhe, Germany), and then stained with 10 μM CellTracker Green 5-Chloromethylfluorescein Diacetate (CMFDA) (Invitrogen, Karlsruhe, Germany) in cell culture media for 30 min. CMFDA is per se non-fluorescent and is hydrolyzed by esterase in viable cells to a fluorescent-dye. The reaction with thiol groups leads to a cell-impermeable fluorescent-dye-adduct. The esterase activity can be used as an indicator for viability of cells (Papadopoulos et al., 1994, J Immunol Methods 177, 101-11). Afterwards, cells were washed with PBS and fixed with 3.7% Formaldehyde (Sigma-Aldrich, Taufkirchen, Germany) in PBS for 20 min. After that, cells were washed with PBS and blocked and permeabilized with 2% donkey serum (Millipore, Schwalbach, Germany) and 0.25% Triton X-100 (Sigma-Aldrich, Taufkirchen, Germany) in PBS for 30 min. Primary antibodies were diluted in Blocking/Permeabilization solution to final concentrations of 4 μg/ml anti-p-Chk1 (Ser345) goat polyclonal antibody IgG (santa cruz, Santa Cruz, USA), 4 μg/ml anti-p-ATM (Ser1981) mouse monoclonal antibody IgG1K (Millipore, Schwalbach, Germany) and added to the cells. After incubation for 16-18 h, cells were washed with 0.05% Tween 20 (Calbiochem, Darmstadt, Germany) in PBS, and the secondary antibody/16 μM Hoechst staining solution Blocking/Permeabilization solution was added. Secondary antibodies were diluted 1:400 (Alexa Fluor 555 donkey anti-goat, Alexa Fluor 647 donkey anti-mouse, Invitrogen, Karlsruhe, Germany). After an incubation of 1 h, followed by two additional washing steps with 0.05% Tween 20, cells were washed with PBS and finally PBS was added and cells were measured.
Image acquisition was performed on the ArrayScan VTI HCS Reader (Cellomics, Pittsburgh, USA) using a 20× objective. To detect enough cells, 50 images starting at the middle of each well were gathered.
• Channel 1: selected cell count per valid field • Channel 2: CMFDA cytoplasm average intensity • Channel 3: p-Chk1 (Ser345) nucleus average intensity • Channel 4: p-ATM (Ser1981) nucleus average intensity

[1] = HepG2 cells, 48 h, CMFDA cytoplasm average intensity, with rat liver S9 (+S9)
[2] = HepG2 cells, 48 h, CMFDA cytoplasm average intensity, without metabolic activation (−S9)
[3] = HepG2 cells, 48 h, selected cell count per valid field, with rat liver S9 (+S9)
[4] = HepG2 cells, 48 h, selected cell count per valid field, without metabolic activation (−S9)

Compound | CMFDA +S9 highest conc. <50% cytotox. over control [1] [µM] | CMFDA −S9 highest conc. <50% cytotox. over control [2] [µM] | SCC +S9 highest conc. <50% cytotox. over control [3] [µM] | SCC −S9 highest conc. <50% cytotox. over control [4] [µM] | CMFDA +S9 highest conc. <50% cytotox. over control (human, 48 h) [µM] | CMFDA −S9 highest conc. <50% cytotox. over control (human, 48 h) [µM] | SCC +S9 highest conc. <50% cytotox. over control (human, 48 h) [µM] | SCC −S9 highest conc. <50% cytotox. over control (human, 48 h) [µM] | other results
ClC(Cl)(Cl)C(Cl)(Cl)Cl [Hexachloroethane] | 1000 | 1000 | 1000 | 1000 |  |  |  |  | 
Oc1ccc(O)cc1 [Hydroquinone] |  |  |  |  | 1000 | 250 | 1000 | 250 | 
Cn1c(N)nc2c3cccnc3ccc21 [IQ, 2-Amino-3methylimidazo[4,5-f]quinoline] | 125 | 1000 | 125 | 1000 |  |  |  |  | 
CC(C)C=O [Isobutyraldehyde] |  |  |  |  | 1000 | 1000 | 1000 | 1000 | 
Nc1nc(N)nc(N)n1 [Melamine] | 1000 | 1000 | 1000 | 1000 |  |  |  |  | 
COC(N)=O [Methyl carbamate] | 1000 | 1000 | 1000 | 1000 |  |  |  |  | 
COS(C)(=O)=O [Methylmethane sulfonate] |  |  |  |  | 250 | 500 | 500 | 250 | 
NC(=S)N(C1CCCCC1)C1CCCCC1 [N,N-dicyclohexyl thiourea] |  |  |  |  | 500 | 1000 | 1000 | 500 | 
Cn1c(N)nc2ncc(-c3ccccc3)cc21 [PhIP•HCl, 2-Amino-1-methyl-6-phenylimidazo[4,5-f]pyridine] | 1000 | 500 | 1000 | 500 |  |  |  |  | 
O=C1OC(=O)c2ccccc21 [Phthalic anhydride] | 1000 | 1000 | 1000 | 1000 |  |  |  |  | 
CC(=O)[C@H]1CC[C@H]2[C@@H]3CCC4=CC(=O)CC[C@]4(C)[C@H]3CC[C@]12C [Progesterone] |  |  |  |  | 250 | 62.5 | 500 | 125 | 
c1ccncc1 [Pyridine] |  |  |  |  |  |  |  |  | CMFDA +S9 highest conc. <50% cytotox. over control (human): 1000 µM; CMFDA −S9 highest conc. <50% cytotox. over control (human): 1000 µM; SCC +S9 highest conc. <50% cytotox. over control (human): 1000 µM; SCC −S9 highest conc. <50% cytotox. over control (human): 1000 µM
O=[As]O [Sodium arsenite] | 125 | 62.5 | 125 | 7.81 |  |  |  |  | 
O=C1NS(=O)(=O)c2ccccc21.[Na] [Sodium saccharin] |  |  |  |  |  |  |  |  | CMFDA +S9 highest conc. <50% cytotox. over control (human): 1000 µM; CMFDA −S9 highest conc. <50% cytotox. over control (human): 1000 µM; SCC +S9 highest conc. <50% cytotox. over control (human): 1000 µM; SCC −S9 highest conc. <50% cytotox. over control (human): 1000 µM
Cc1noc(NS(=O)(=O)c2ccc(N)cc2)c1C [Sulfisoxazole] |  |  |  |  | 1000 | 1000 | 1000 | 1000 | 
CC(=O)O[C@H]1C(=O)[C@@]2(C)[C@H]([C@H](OC(=O)c3ccccc3)[C@]3(O)C[C@H](OC(=O)[C@H](O)[C@@H](NC(=O)c4ccccc4)c4ccccc4)C(C)=C1C3(C)C)[C@]1(OC(C)=O)CO[C@@H]1C[C@@H]2O [Taxol] |  |  |  |  | 1000 | 1000 | 500 | 1000 | 
CC(C)(C)c1cc(O)ccc1O [Tertiary-butylhydroquinone] |  |  |  |  | 1000 | 125 | 1000 | 125 | 
CCCCC(CC)COP(=O)(OCC(CC)CCCC)OCC(CC)CCCC (centres unmarked) [Tris(2-ethylhexyl)phosphate] | 1000 | 7.813 | 1000 | 500 |  |  |  |  | 
NC(N)=O [Urea] | 1000 | 1000 | 1000 | 1000 |  |  |  |  | 
CCCCCl [n-butyl chloride] |  |  |  |  |  |  |  |  | CMFDA +S9 highest conc. <50% cytotox. over control: 1000 µM; CMFDA −S9 highest conc. <50% cytotox. over control: 1000 µM; SCC +S9 highest conc. <50% cytotox. over control: 1000 µM; SCC −S9 highest conc. <50% cytotox. over control: 1000 µM
Nc1ccccc1C(=O)O [o-Anthranilic acid] | 1000 | 1000 | 1000 | 1000 |  |  |  |  | 
Nc1ccc(Cl)cc1 [p-chloroaniline] |  |  |  |  |  |  |  |  | CMFDA +S9 highest conc. <50% cytotox. over control (human): 1000 µM; CMFDA −S9 highest conc. <50% cytotox. over control (human): 1000 µM; SCC +S9 highest conc. <50% cytotox. over control (human): 1000 µM; SCC −S9 highest conc. <50% cytotox. over control (human): 1000 µM
Aflatoxin B1 |  |  |  |  |  |  |  |  | CMFDA +S9 highest conc. <50% cytotox. over control: 500 µM; CMFDA −S9 highest conc. <50% cytotox. over control: 500 µM; SCC +S9 highest conc. <50% cytotox. over control: 500 µM; SCC −S9 highest conc. <50% cytotox. over control: 31.25 µM
